Article PMC4285233 (Molecular Microbiology, 2014)

Columns and labels:
[1] = biological target: T1, Gap1 (general amino acid permease) (Saccharomyces cerevisiae, UniProt P19145); assay: inhibition of L-citrulline uptake in intact yeast; format: cell-based
T1 sequence (P19145 1-602): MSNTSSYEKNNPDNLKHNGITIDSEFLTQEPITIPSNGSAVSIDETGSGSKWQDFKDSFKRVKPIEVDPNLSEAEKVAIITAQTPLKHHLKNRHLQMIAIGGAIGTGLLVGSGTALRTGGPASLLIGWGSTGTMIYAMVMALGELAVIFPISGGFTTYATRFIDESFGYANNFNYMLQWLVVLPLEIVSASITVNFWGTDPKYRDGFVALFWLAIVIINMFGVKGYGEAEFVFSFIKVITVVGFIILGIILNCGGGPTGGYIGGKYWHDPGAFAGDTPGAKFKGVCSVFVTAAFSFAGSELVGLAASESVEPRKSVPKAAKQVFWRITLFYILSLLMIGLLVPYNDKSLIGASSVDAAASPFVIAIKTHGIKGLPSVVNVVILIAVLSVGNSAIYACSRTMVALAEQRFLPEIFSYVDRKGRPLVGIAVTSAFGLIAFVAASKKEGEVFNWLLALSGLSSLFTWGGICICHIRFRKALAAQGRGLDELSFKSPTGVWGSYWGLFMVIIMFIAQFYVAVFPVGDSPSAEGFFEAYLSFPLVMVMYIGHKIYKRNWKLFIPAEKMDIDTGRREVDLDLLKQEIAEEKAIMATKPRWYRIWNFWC

[2] = biological target: T1, Gap1 (general amino acid permease); assay: inhibition of […]-L-citrulline uptake in intact yeast; format: cell-based

Row | SMILES | inhibition of L-citrulline uptake in intact yeast (Fig. S6B, C) [1] | Ki [2]
1 | N[C@H](Cc1c[nH]cn1)C(=O)O [D-histidine] | Moreover they are acting largely as competitive inhibitors of L-citrulline transport (Fig. S6B and C) | –
2 | N[C@@H](Cc1c[nH]cn1)C(=O)O [L-histidine] | – | 2.5 µM
3 | NCCCC[C@H](N)C(=O)O [L-lysine] | – | 9.5 µM
4 | N[C@@H](Cc1c[nH]c2ccccc12)C(=O)O [L-tryptophan] | – | 3.3 µM
5 | NCCC(=O)O [β-alanine] | Moreover they are acting largely as competitive inhibitors of L-citrulline transport (Fig. S6B and C) | –
